Test results: patent US5332734A, “Oxazinone derivative” (Japan Tobacco, Incorporated, priority 1991, dated 1994)
pIC50: −log10 of the molar value.

Tests used:
Type in all cases: biochemical
[1] = molecular target: T1, bovine pancreatic α-chymotrypsin (CYT) (Bos taurus, UniProt P00766); assay: CYT inhibitory activity; settings: CYT 3.4 nM, substrate 0.273 mM, pH 8.0
T1 construct: purchased Sigma Inc; host or cells: bovine pancreas (by its name)
Method: (§1) Inhibotory activities of the oxadinone derivative of the present invention against human leukocyte elastase (HLE), human sputum elastase (HSE), human cathepsin G (HCG), bovine pancreatic α-chymotrypsin (CYT) and bovine pancreatic trypsin (TRY) were measured as follows:
(4) Measurement of CYT Inhibitory Activity
a) Enzyme Preparing Method Bought from Sigma Inc.
(§2) Employed was a measuring method similar to that described previously in conjunction with the measurement of the HLE inhibiting activity, except that used was a buffer solution of pH 8.0. The final concentrations of CYT and the synthetic substrate (Ac-Ala-Ala-Pro-Phe-pNA; FUNAKOSHI) in the solution of the enzyme reaction were 3.4 nM and 0.273 mM, respectively.

[2] = molecular target: T2, human leukocyte elastase (HLE) (Homo sapiens, UniProt P08246); assay: HLE inhibitory activity; settings: HLE 5.63 nM, substrate 0.2625 mM, pH 8.6, 37° C.
T2 construct: applying a density gradient centrifugal operation so as to obtain neutrophils; from tissue; host or cells: neutrophils from human venous blood
T2 sequence (P08246 30-267): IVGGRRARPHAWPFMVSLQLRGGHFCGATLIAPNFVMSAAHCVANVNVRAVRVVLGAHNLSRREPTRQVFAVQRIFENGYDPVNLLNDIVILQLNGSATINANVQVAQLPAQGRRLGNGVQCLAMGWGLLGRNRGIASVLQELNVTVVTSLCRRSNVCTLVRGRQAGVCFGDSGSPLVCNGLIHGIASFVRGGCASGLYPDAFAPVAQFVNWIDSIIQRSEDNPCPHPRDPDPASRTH
Method: as §1
(1) Measurement of HLE Inhibitory Activity
A buffy coat was obtained by subjecting human vein blood to centrifugal separation, followed by adding distilled water to the buffy coat thus obtained for performing a low tension treatment so as to collapse erythrocytes. A mixture consisting of 10 parts of a 33.4% Conrey 400 solution and 24 parts of 9% of Ficoll solution was added to the residual blood cell component, followed by applying a density gradient centrifugal operation so as to obtain neutrophils. The neutrophil fraction was washed three times with Hanks' buffer so as to recover cells, which were frozen at -80° C. for preservation until the cells were used. The cells preserved under a frozen state were thawed with warm water of 37° C. and suspended in the lysis buffer (0.1M Tris-HCl pH 7.5, 1M MgCl2, 0.1% Brij 35), the amount of the buffer being 9 times as much as that of the cells. Then, the suspended cells were collapsed with polotron while cooling the suspension with ice. Then, the suspension was subjected to a centrifugal separation at 100,000×g for one hour so as to remove the precipitate. Also, a buffer (5 mM Tris-HCl pH 7.5, 1M NaCl, 1.1% Brij 35) was added to the supernatant in an amount twice as much as the supernatant so as to prepare a crude solution of an enzyme extract. The crude solution of an enzyme extract was adsorbed on an aprotinin affinity column. Further, the active fraction eluted with a 50 ml glycine-HCl solution (pH 3.3, 1M NaCl, 0.1% Brij 35) was passed through a MONO S ion-exchange chromatography. The active fraction eluted with a 2M NaCl linear gradient was dialyzed and, then, subjected to a freeze-drying so as to prepare an enzyme sample.
A test compound to be detected was dissolved in DMSO (for fluorometry) so as to prepare solutions of various concentrations. Then, the solution of 0.2M Tris-HCl (pH 9.6) was added to each of the solutions in an amount twice as much as the solution so as to prepare a test solution. On the other hand, a synthetic substrate (MeOSuc-Ala-Pro-Val-pNA; FUNAKOSHI) was dissolved in DMSO, followed by adding 0.2M tris-HCl solution (pH 8.6) to the solution in an amount twice as much as the solution so as to prepare a substrate solution.
A microplate (NUNK) provided with 96 wells was used for the reaction. The reaction was repeatedly carried out 6 times for each concentration of the test compound. Each of 140 μl of the enzyme solution (0.2M Tris-HCl, pH 8.6), 30 μl of the test material solution and 30 μl of the substrate solution was pre-incubated for 10 minutes at 37° C. for each well of the microplate. After incubation of a mixture of the enzyme solution and the test material solution for 10 minutes, the substrate solution was added so as to carry out the enzyme reaction. For determining the substrate decomposition, the absorbance (405 run) of the released pNA was measured by a microplate reader (MTP-100; CORONA), and the substrate decomposition was calculated on the basis of the average value of the absorbances repeatedly measured 6 times. The inhibitory concentration of the test compound relative to the decomposition amount of the substrate in the case where the test compound was not added was obtained as IC50 value.

human cathepsin G (HCG) = molecular target: T3, human cathepsin G (HCG) (Homo sapiens, UniProt P08311); assay: HCG inhibitory activity; settings: HCG 50 nM, substrate 0.5 mM, pH 7.5
T3 construct: purchased Cosmo Bio Inc
T3 sequence (P08311 21-255): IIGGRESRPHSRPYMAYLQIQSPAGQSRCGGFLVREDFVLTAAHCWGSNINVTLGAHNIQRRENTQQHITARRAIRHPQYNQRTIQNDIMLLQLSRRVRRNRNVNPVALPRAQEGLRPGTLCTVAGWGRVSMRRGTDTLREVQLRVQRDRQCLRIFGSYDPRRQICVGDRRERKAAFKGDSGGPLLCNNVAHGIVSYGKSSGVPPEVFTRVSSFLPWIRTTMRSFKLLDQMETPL
Method: as §1
(3) Measurement of HCG Inhibitory Activity
a) Enzyme Preparing Method Bought from Cosmo Bio Inc.
as §2, with “7.5.” for “8.0.”, “HCG” for “CYT”, “50” for “3.4”, “0.5” for “0.273”

SMILES | pIC50 [1] | pIC50 [2] | pIC50 (human cathepsin G (HCG))
Cc1cccc2nc([C@@H](NC(=O)CNC(=O)C3c4ccccc4-c4ccccc43)C(C)C)oc(=O)c12 [Compound 4, 2-[1(S)-[[N-(9-fluorenylcarbonyl)glycyl]amino]-2-methylpropyl]-5-methyl-4H-3,1-benzoxazin-4-one] | 5.18 | 6.12 | 4.95
Cc1cccc2nc([C@@H](NC(=O)C=C3c4ccccc4-c4ccccc43)C(C)C)oc(=O)c12 [Compound 6, 2-{1(S)-[(fluorene-Δ^9, ^α -acetyl)amino]-2-methylpropyl}-5-methyl-4H-3,1-benzoxazin-4-one] |  | 6.19 | 
Cc1cccc2nc(CNC(=O)COC3c4ccccc4-c4ccccc43)oc(=O)c12 [Compound 7, 2-[(9-fluorenyloxyacetyl)aminomethyl]-5-methyl-4H-3,1-benzoxazin-4-one] | < 5.12 | 5.89 | < 5.12
Cc1cccc2nc(C(C)(C)NC(=O)COC3c4ccccc4-c4ccccc43)oc(=O)c12 [Compound 8, 2-{1-[(9-fluorenyloxyacetyl)amino]-1-methylethyl}-5-methyl-4H-3,1-benzoxazin-4-one] |  | 6.00 | 

Molecules with a higher pIC50 [2], results first:

pIC50 [1] | pIC50 [2] | pIC50 (human cathepsin G (HCG)) | SMILES
5.46 | 6.29 | < 4.56 | Cc1cccc2nc([C@@H](NC(=O)COC3c4ccccc4-c4ccccc43)C(C)C)oc(=O)c12 [Compound 3, 2-{1(S)-[(9-fluorenyloxyacetyl)amino]-2-methylpropyl}-5-methyl-4H-3,1-benzoxazin-4-one]
5.71 | 6.62 | < 4.91 | CC(=O)N(CCC(=O)N[C@H](c1nc2cccc(C)c2c(=O)o1)C(C)C)C1c2ccccc2-c2ccccc21 [Compound 5, 2-[1(S)-[[N-acetyl-N-(9-fluorenyl)-β-alanyl]amino]-2-methylpropyl]-5-methyl-4H-3,1-benzoxazin-4-one]
